{"source": "patent US9897607B2", "about": "“Methods, kits, and systems for treatment of metastatic papillary thyroid cancer” (The Governors of the University of Alberta, priority 2012, dated 2018)", "key": {"TPC-1-derived cell lines": {"system": "TPC-1-derived cell lines", "assay": "Mice xenograft model with shRNA TPC-1-derived cell lines", "type": "in vivo", "details": "mice inoculated with cell lines in Matrigel; 20 days after inoculation; versus other groups", "description": "To selectively and stably silence the expression of the PDGFR-alpha and-beta receptors in the TPC-1, BCPAP and 8305C cell lines we used the HuSH-29 shRNA Vector system (HuSH-29 shRNA Retroviral Vector Systems; OriGene Technologies, Inc.). Briefly, to silence the expression of the PDGFR-alpha receptor PTC cells were transduced with the pRS shRNA retrovirus system (Puro+) followed by selection in puromycin (2.5 ug/mL). Resistant cells were assessed by western blot to select the sequences that produced the higest levels of protein expression knock-down. The sequences used for these studies were […] (SEQ ID NO: 1) for the TPC-1 cell line and […] (SEQ ID NO: 2) for the 8305C cell line. To selectively knock down the PDGFR-beta receptor were transduced with the pGFP-BR-S shRNA retrovirus system (BSD+) followed by selection in blasticidin (500 ug/mL). Resistant cells were again assessed by western blot to select the sequences that produced the higest levels of protein expression knock-down. […]\nThe experiments of FIG. 13 depict knock down of PDGFR-alpha or -beta subunit results in opposing effects in tumour formation on a mice xenograft model. […] The average tumour volume (top panel) and tumour weight (bottom panel) was much higher for mice given cell lines expressing only PDGFR-alpha and statistical significance between groups were calculated 20 days after inoculation."}, "[1]": {"system": "PDGFR-α (phospho-PDGFR), PI3K/Akt and MAPK/ERK pathways", "assay": "Western blot of primary cell culture from metastatic papillary thyroid cancer lymph node, PDGF-BB stimulation", "type": "cell-based, human", "description": "(§1) Primary cell culture and experimental cell lines were maintained in RPMI 1640 media supplemented with 10% FBS. The cells were seeded in a 100-mm culture dish and were grown in a humidified 5% CO2 incubator. For PDGF-BB stimulation (25 ng/ml), cells were grown to about 80% confluence and incubated in serum-free medium overnight prior to each experiment. MAPK/ERK inhibitors U0126 and PD98059 were purchased from Calbiochem (Toronto, Ontario, Canada). PI3K/Akt inhibitor ly294002 was purchased from Cell Signaling Technology (Danvers, Mass., USA). Cells that were treated with inhibitors were given varying concentrations: U0126; 2 umol/L and 10 umol/L; Ly294002 10 umol/L and 25 umol/L; Sunitinib 0.25 umol/L. In all cases, unless otherwise indicated the inhibitors were given to cells and 60 minutes later the PDGF-BB was added to the cultures followed by Western blot analysis.\n(§2) Cells were lysed in RIPA buffer [150 mM NaCl, 100 mM Tris (pH 8.0), 1% Triton X-100, 1% deoxycholic acid, 0.1% SDS, 5 mM EDTA, and 10 mM NaF] supplemented with 1 mM sodium vanadate, 2 mM leupeptin, 2 mM aprotinin, 1 mM phenylmethylsulfonyl fluoride (PMSF), 1 mM DTT, 2 mM pepstatin, and 1:100 protease inhibitor cocktail set III on ice. After centrifugation at 4° C. at 18,000 rpf for 15 min, the supernatant was harvested as the total cellular protein extracts and stored at −80° C. The protein concentration was determined using Bio-Rad protein assay reagent (Richmond, Va., USA). Running samples were prepared by adding a sample reducing agent and SDS sample buffer, incubating at 98° C. for 5 min. Aliquots of protein extract samples were separated by SDS-polyacrylamide gel electrophoresis (SDS-PAGE) and transferred to nitrocellulose membrane. Membranes were blocked with 5% nonfat dry milk in 1×TBS containing 0.05% Tween-20 for 60 min, followed by incubation with primary antibodies 4° C. overnight. Protein bands were detected by incubation with horseradish peroxidase-conjugated antibodies (Pierce Biotechnology, Rockford, Ill., USA) and visualized with SuperSignal West Pico chemiluminescence substrate (Thermo Scientific, Rockford, Ill., USA)."}, "TPC-1 cell line [2]": {"system": "TPC-1 cell line", "assay": "Cytoselect cell invasion assay, TPC-1", "type": "cell-based, human", "description": "(§3) As previously described, Cytoselect™ 96-well cell invasion assay kit was used (Cell Biolabs, San Diego, Calif., USA) to assess cell invasiveness according to the manufacturer's protocol.^46 Briefly, TPC-1, BCPAP and 8305C after transfected with either PDGFRα siRNA or scramble siRNA, 10000 cells were starved overnight and added to the inserts, PDGF-BB was added to some wells at the concentration of 25 ng/mL, PDGF-BB was added 1 h later for inhibitors, sunitinib (0.2 umol/L), Ly294002 (10 umol/L) and (U0126) 2 umol/L, cells were seeded into the insert plate for 16 hours, the invasive cells passed through basement membrane layer to the bottom and dissociated from membrane by the addition of cells detachment buffer, the invasive cells were lysed and followed by quantification using CyQuant GR fluorescent Dye. For cell viability analysis 10000 cells were seeded per well and cultured for 16 hours. MTS assay (Promega, Madison, USA) was then performed in 4 replicates followed manufacturer's instructions. PTC cell lines transfected with PDGFR specific siRNA or scrambled control were plated at a density of 10,000 or 20,000/ml and cultured for 5 days. Cell counts were done on days 2, 3 and 5 using trypan blue (Sigma-Aldrich, Oakville, Canada) and results expressed as total number of viable cells. MTS assay was done in 7 replicates as per manufacturer's instructions. The absorbance was recorded by a BioRad spectrophotometer at day 5 of cell culture."}, "8305C cell line": {"system": "8305C cell line", "assay": "Cytoselect cell invasion assay, 8305C", "type": "cell-based, human", "description": "as §3"}, "BCPAP cell line": {"system": "BCPAP cell line", "assay": "Cytoselect cell invasion assay, BCPAP", "type": "cell-based, human", "description": "as §3, with “MTS assay was done in 7 replicates as per manufacturer's instructions.” left out"}, "[3]": {"system": "TPC-1, 8305C and BCPAP cell lines", "assay": "Cell growth of PTC cell lines with sunitinib (FIG. 6)", "type": "cell-based, human", "details": "all of the cell lines; absence of PDGF-BB stimulation"}, "[4]": {"system": "PDGFR-α/β, MAPK/ERK and PI3K/Akt pathways in TPC-1 cells", "assay": "Western blot of PDGFR activation and MAPK/ERK, PI3K/Akt signalling, TPC-1", "type": "cell-based, human", "description": "as §1, §2"}, "[5]": {"system": "PDGFR-α/β, MAPK/ERK and PI3K/Akt pathways in 8305C cells", "assay": "Western blot of PDGFR activation and MAPK/ERK, PI3K/Akt signalling, 8305C", "type": "cell-based, human", "description": "as §1, §2"}, "thyroid cancer": {"system": "thyroid cancer", "details": "thyroid cancer trials; cited from earlier work"}, "TPC-1 cell line [6]": {"system": "TPC-1 cell line", "assay": "Cell viability (MTS assay), TPC-1", "type": "cell-based, human", "details": "small molecule inhibitors Ly294002, U0126, 16 hours", "description": "as §3, with “MTS assay was done in 7 replicates as per manufacturer's instructions.” left out"}, "KTC-1 cell line": {"system": "KTC-1 cell line", "assay": "Cytoselect cell invasion assay, KTC-1", "type": "cell-based, human", "details": "KTC-1 (neither subunit); also increasing levels or longer stimulation"}, "[7]": {"details": "primary culture, PDGF-BB 25 ng/ml"}}, "note": "Entries after “also recorded” stand apart in the source; their conditions may differ.", "data": [{"molecule": "TGCCTCCGACGAGATCTATGAGATCATGC (SEQ ID NO: 3) (listed as Homo sapiens) [sh PDGFR-beta, shRNA (pGFP-BR-S retrovirus system) knocking down PDGFR-beta in TPC-1; cells then express only PDGFR-alpha]", "values": [{"measurement": "average tumour volume", "setting": "TPC-1-derived cell lines", "result": "much higher"}, {"measurement": "tumour weight", "setting": "TPC-1-derived cell lines", "result": "much higher"}]}, {"molecule": "CCN(CC)CCNC(=O)c1c(C)[nH]c(/C=C2\\C(=O)Nc3ccc(F)cc32)c1C", "note": "[sunitinib, Sunitinib malate]", "values": [{"measurement": "activation of PDGFR (phospho-PDGFR) and downstream PI3K/Akt and MAPK/ERK pathways by PDGF-BB", "setting": "[1]; sunitinib 0.25 umol/L given 60 minutes before PDGF-BB 25 ng/ml, semi-quantitative Western blot", "result": "can be blocked; also recorded: completed blocked"}, {"measurement": "change in invasive potential with PDGF-BB stimulation", "setting": "TPC-1 cell line [2]; TPC-1, sunitinib 0.2 umol/L, PDGF-BB 25 ng/mL added 1 h later, 16 hours", "result": "virtually completely abates any change in invasive potential; also recorded: abated any change in invasive potential"}, {"measurement": "invasive potential without PDGF-BB stimulation", "setting": "TPC-1 cell line [2]; TPC-1, sunitinib 0.2 umol/L, no PDGF-BB", "result": "does not alter invasive potential"}, {"measurement": "change in invasive potential with PDGF-BB stimulation", "setting": "8305C cell line; 8305C, sunitinib 0.2 umol/L, PDGF-BB 25 ng/mL added 1 h later, 16 hours", "result": "virtually completely abates any change in invasive potential; also recorded: abated any change in invasive potential"}, {"measurement": "invasive potential without PDGF-BB stimulation", "setting": "8305C cell line; 8305C, sunitinib 0.2 umol/L, no PDGF-BB", "result": "does not alter invasive potential"}, {"measurement": "invasive potential without PDGF-BB stimulation", "setting": "BCPAP cell line; BCPAP, sunitinib 0.2 umol/L, no PDGF-BB", "result": "does not alter invasive potential"}, {"measurement": "effect on cell growth", "setting": "[3]", "result": "not significant"}, {"measurement": "activation of PDGFR-α/β (phospho-PDGFR)", "setting": "[4]; TPC-1, sunitinib 0.25 umol/L, PDGF-BB 25 ng/ml 60 minutes later", "result": "completely disrupts PDGFR activation; also recorded: completely blocks activation of PDGFR-α/β"}, {"measurement": "activity in PI3K/Akt and MAPK/ERK pathways", "setting": "[4]; TPC-1, sunitinib 0.25 umol/L, PDGF-BB stimulated", "result": "significant decreased activity"}, {"measurement": "activation of PDGFR-α/β (phospho-PDGFR)", "setting": "[5]; 8305C, sunitinib 0.25 umol/L, PDGF-BB 25 ng/ml 60 minutes later", "result": "completely disrupts PDGFR activation; also recorded: completely blocks activation of PDGFR-α/β"}, {"measurement": "activity in PI3K/Akt and MAPK/ERK pathways", "setting": "[5]; 8305C, sunitinib 0.25 umol/L, PDGF-BB stimulated", "result": "significant decreased activity"}, {"measurement": "outcomes", "setting": "thyroid cancer", "result": "favourable outcomes"}, {"measurement": "side-effect profiles", "setting": "thyroid cancer", "result": "acceptable side-effect profiles"}]}, {"molecule": "O=c1cc(N2CCOCC2)oc2c(-c3ccccc3)cccc12", "note": "[Ly294002]", "values": [{"measurement": "cell viability", "setting": "TPC-1 cell line [6]", "result": "not significantly altered"}]}, {"molecule": "CNC(=O)c1cc(Oc2ccc(NC(=O)Nc3ccc(Cl)c(C(F)(F)F)c3)cc2)ccn1", "note": "[Sorafenib, sorafenib]", "values": [{"measurement": "outcomes", "setting": "thyroid cancer", "result": "favourable outcomes"}, {"measurement": "side-effect profiles", "setting": "thyroid cancer", "result": "acceptable side-effect profiles"}]}, {"molecule": "PDGF-BB: PDGFR ligand known to bind all subunits of PDGFR, purchased from GIBCO", "values": [{"measurement": "phospho-Akt (PI3K/Akt pathway)", "setting": "[1]; [7]", "result": "significant increases"}, {"measurement": "phospho-ERK (MAPK/ERK pathway)", "setting": "[1]; [7]", "result": "small increase"}, {"measurement": "phospho-PDGFR", "setting": "[1]; [7]", "result": "activated PDGFR-α"}, {"measurement": "invasive potential on PDGF-BB stimulation", "setting": "TPC-1 cell line [2]; TPC-1 (PDGFR-α and -β), PDGF-BB 25 ng/mL", "result": "significant increase in invasive potential; also recorded: increased invasive potential"}, {"measurement": "invasive potential on PDGF-BB stimulation", "setting": "8305C cell line; 8305C (PDGFR-α only), PDGF-BB 25 ng/mL", "result": "significant increase in invasive potential; also recorded: increased invasive potential"}, {"measurement": "invasive potential on PDGF-BB stimulation", "setting": "BCPAP cell line; BCPAP (PDGFR-β only), PDGF-BB 25 ng/mL", "result": "did not exhibit any change in invasive potential"}, {"measurement": "invasive potential on PDGF-BB stimulation", "setting": "KTC-1 cell line", "result": "did not exhibit any change in invasive potential"}, {"measurement": "phospho-PDGFR-α/β, phospho-Akt, and phospho-ERK", "setting": "[4]; TPC-1, PDGF-BB 25 ng/ml", "result": "strong up-regulation"}, {"measurement": "time of return of levels to baseline", "setting": "[4]; TPC-1, PDGF-BB stimulation", "result": "~60", "unit": "min"}, {"measurement": "time to increases in phospho-PDGFR-α/β, phospho-Akt and phospho-ERK", "setting": "[4]; TPC-1, PDGF-BB stimulation", "result": "≤ 5", "unit": "min"}, {"measurement": "time to maximal activation of both pathways", "setting": "[4]; TPC-1, PDGF-BB stimulation", "result": "≤ 15", "unit": "min"}, {"measurement": "phospho-ERK", "setting": "[5]; 8305C (BRAF mutation, MAPK/ERK constitutively activated), PDGF-BB", "result": "small increase"}, {"measurement": "phospho-PDGFR-α/β, phospho-Akt, and phospho-ERK", "setting": "[5]; 8305C, PDGF-BB 25 ng/ml", "result": "strong up-regulation"}]}, {"molecule": "N#CC(=C(/N)Sc1ccccc1N)/C(C#N)=C(\\N)Sc1ccccc1N", "note": "[U0126]", "values": [{"measurement": "PDGF-BB mediated increases in invasive potential", "setting": "TPC-1 cell line [2]; TPC-1, U0126 2 umol/L (MAPK/ERK blockade), PDGF-BB 25 ng/mL 1 h later, 16 hours", "result": "sufficient to abrogate increases in invasive potential; also recorded: prevents PDGF-BB mediated increases in invasive potential"}, {"measurement": "cell viability", "setting": "TPC-1 cell line [6]", "result": "not significantly altered"}, {"measurement": "MAPK/ERK pathway blockade (Western blot)", "setting": "[4]; PDGF-BB stimulated TPC-1 cells, U0126 2 umol/L and 10 umol/L", "result": "decreased protein expression; also recorded: nearly complete"}]}]}
